According to article PMC11240139, “Exploring the antitumor potential of novel quinoline derivatives via tubulin polymerization inhibition in breast cancer; design, synthesis and molecular docking” (RSC Advances, 2024):

Assays:
Experiment in all cases: NCI-60 SRB cytotoxicity screen
Assay type in all cases: cell-based
MDA-MB-435 (melanoma) = conditions: Homo sapiens, MDA-MB-435, read-out: growth inhibition (GI%)
HCC-2998 (colon cancer) = conditions: Homo sapiens; HCC-2998, single dose 10 μM; read-out: growth inhibition (GI%)
SK-OV-3 (ovarian cancer) = conditions: Homo sapiens; SK-OV-3, single dose 10 μM; read-out: growth inhibition (GI%)
CAKI-1 (renal cancer) = conditions: Homo sapiens; CAKI-1, single dose 10 μM; read-out: growth inhibition (GI%)
HCT-15 (colon cancer) = conditions: Homo sapiens; HCT-15, single dose 10 μM; read-out: growth inhibition (GI%)
HL-60(TB) (leukemia) = conditions: Homo sapiens, single dose 10 μM, read-out: growth inhibition (GI%)
[1] = tested on: HOP-62 (non-small cell lung cancer); conditions: Homo sapiens; HOP-62, single dose 10 μM; read-out: growth inhibition (GI%)
MALME-3M (melanoma) = conditions: Homo sapiens, single dose 10 μM, read-out: growth inhibition (GI%)
OVCAR-4 (ovarian cancer) = conditions: Homo sapiens; OVCAR-4, single dose 10 μM; read-out: growth inhibition (GI%)
RPMI-8226 (leukemia) = conditions: Homo sapiens; RPMI-8226, single dose 10 μM; read-out: growth inhibition (GI%)
[2] = tested on: NCI-H460 (non-small cell lung cancer); conditions: Homo sapiens; NCI-H460, single dose 10 μM; read-out: growth inhibition (GI%)
TK-10 (renal cancer) = conditions: Homo sapiens; TK-10, single dose 10 μM; read-out: growth inhibition (GI%)
SK-MEL-5 (melanoma) = conditions: Homo sapiens; SK-MEL-5, single dose 10 μM; read-out: growth inhibition (GI%)
PC-3 (prostate cancer) = conditions: PC-3, single dose 10 μM; read-out: growth inhibition (GI%)
[3] = tested on: A549/ATCC (non-small cell lung cancer); conditions: Homo sapiens, single dose 10 μM, read-out: growth inhibition (GI%)
KM12 (colon cancer) = conditions: Homo sapiens; KM12, single dose 10 μM; read-out: growth inhibition (GI%)
MCF7 (breast cancer) = conditions: Homo sapiens; MCF7, single dose 10 μM; read-out: growth inhibition (GI%)
ACHN (renal cancer) = conditions: Homo sapiens, single dose 10 μM, read-out: growth inhibition (GI%)
BT-549 (breast cancer) = conditions: Homo sapiens; BT-549, single dose 10 μM; read-out: growth inhibition (GI%)
UACC-257 (melanoma) = conditions: Homo sapiens; UACC-257, single dose 10 μM; read-out: growth inhibition (GI%)
SF-295 (CNS cancer) = conditions: Homo sapiens; SF-295, single dose 10 μM; read-out: growth inhibition (GI%)
SW-620 (colon cancer) = conditions: Homo sapiens; SW-620, single dose 10 μM; read-out: growth inhibition (GI%)
786-0 (renal cancer) = conditions: Homo sapiens; 786-0, single dose 10 μM; read-out: growth inhibition (GI%)
[4] = tested on: NCI-H522 (non-small cell lung cancer); conditions: Homo sapiens; NCI-H522, single dose 10 μM; read-out: growth inhibition (GI%)
RXF 393 (renal cancer) = conditions: Homo sapiens; RXF 393, single dose 10 μM; read-out: growth inhibition (GI%)
UACC-62 (melanoma) = conditions: Homo sapiens; UACC-62, single dose 10 μM; read-out: growth inhibition (GI%)
[5] = tested on: HOP-92 (non-small cell lung cancer); conditions: Homo sapiens; HOP-92, single dose 10 μM; read-out: growth inhibition (GI%)
SK-MEL-2 (melanoma) = conditions: Homo sapiens; SK-MEL-2, single dose 10 μM; read-out: growth inhibition (GI%)
[6] = tested on: EKVX (non-small cell lung cancer); conditions: Homo sapiens, single dose 10 μM, read-out: growth inhibition (GI%)

| SMILES | inhibition at 10 µM (MDA-MB-435 (melanoma)) [%] | inhibition at 10 µM (HCC-2998 (colon cancer)) [%] | inhibition at 10 µM (SK-OV-3 (ovarian cancer)) [%] | inhibition at 10 µM (CAKI-1 (renal cancer)) [%] | inhibition at 10 µM (HCT-15 (colon cancer)) [%] | inhibition at 10 µM (HL-60(TB) (leukemia)) [%] | inhibition at 10 µM [1] [%] | inhibition at 10 µM (MALME-3M (melanoma)) [%] | inhibition at 10 µM (OVCAR-4 (ovarian cancer)) [%] | inhibition at 10 µM (RPMI-8226 (leukemia)) [%] | inhibition at 10 µM [2] [%] | inhibition at 10 µM (TK-10 (renal cancer)) [%] | inhibition at 10 µM (SK-MEL-5 (melanoma)) [%] | inhibition at 10 µM (PC-3 (prostate cancer)) [%] | inhibition at 10 µM [3] [%] | inhibition at 10 µM (KM12 (colon cancer)) [%] | inhibition at 10 µM (MCF7 (breast cancer)) [%] | inhibition at 10 µM (ACHN (renal cancer)) [%] | inhibition at 10 µM (BT-549 (breast cancer)) [%] | inhibition at 10 µM (UACC-257 (melanoma)) [%] | also measured |
| --- | --- | --- | --- | --- | --- | --- | --- | --- | --- | --- | --- | --- | --- | --- | --- | --- | --- | --- | --- | --- | --- |
| CCc1cccc2cc(-c3cc(-c4ccc(Br)cc4)[nH]c(=S)c3C#N)c(Cl)nc12 [Compound 5e, 6-(4-Bromophenyl)-4-(2-chloro-8-ethylquinolin-3-yl)-2-thioxo-1,2-dihydropyridine-3-carbonitrile] | < 10 | < 10 | 11.2 | 20.1 | < 10 | < 10 | < 10 | < 10 | < 10 | 14.7 | < 10 | < 10 | < 10 | < 10 | < 10 | < 10 | 19.7 | < 10 | < 10 | < 10 | inhibition at 10 µM (SF-295 (CNS cancer)): < 10%; inhibition at 10 µM (SW-620 (colon cancer)): < 10%; inhibition at 10 µM (786-0 (renal cancer)): < 10%; inhibition at 10 µM [4]: < 10%; inhibition at 10 µM (RXF 393 (renal cancer)): < 10%; inhibition at 10 µM (UACC-62 (melanoma)): < 10%; inhibition at 10 µM [5]: < 10%; inhibition at 10 µM (SK-MEL-2 (melanoma)): < 10%; inhibition at 10 µM [6]: < 10% |
| CCc1cccc2cc(-c3cc(-c4ccc(Br)cc4)[nH]c(=O)c3C#N)c(Cl)nc12 [Compound 4e, 6-(4-Bromophenyl)-4-(2-chloro-8-ethylquinolin-3-yl)-2-oxo-1,2-dihydropyridine-3-carbonitrile] | < 10 | < 10 | 11.7 | 17.6 | < 10 | < 10 | < 10 | < 10 | 10.8 | < 10 | < 10 | < 10 | 13 | < 10 | < 10 | < 10 | 20.6 | < 10 | 27.7 | < 10 | inhibition at 10 µM (SF-295 (CNS cancer)): < 10%; inhibition at 10 µM (SW-620 (colon cancer)): < 10%; inhibition at 10 µM (786-0 (renal cancer)): < 10%; inhibition at 10 µM [4]: < 10%; inhibition at 10 µM (RXF 393 (renal cancer)): < 10%; inhibition at 10 µM (UACC-62 (melanoma)): < 10%; inhibition at 10 µM [5]: < 10%; inhibition at 10 µM (SK-MEL-2 (melanoma)): < 10%; inhibition at 10 µM [6]: < 10% |
| CCc1cccc2cc(C3C=C(c4ccc(Br)cc4)NC(=S)N3)c(Cl)nc12 (centres unmarked) [Compound 6e, 6-(4-Bromophenyl)-4-(2-chloro-8-ethylquinolin-3-yl)-3,4-dihydropyrimidine-2(1H)-thione] | < 10 | < 10 | 10.7 | 10.4 | < 10 | < 10 | < 10 | < 10 | 10.2 | 10.7 | < 10 | < 10 | < 10 | < 10 | < 10 | < 10 | 18.4 | < 10 | < 10 | < 10 | inhibition at 10 µM (SF-295 (CNS cancer)): < 10%; inhibition at 10 µM (SW-620 (colon cancer)): < 10%; inhibition at 10 µM (786-0 (renal cancer)): < 10%; inhibition at 10 µM [4]: < 10%; inhibition at 10 µM (RXF 393 (renal cancer)): < 10%; inhibition at 10 µM (UACC-62 (melanoma)): < 10%; inhibition at 10 µM [5]: < 10%; inhibition at 10 µM (SK-MEL-2 (melanoma)): < 10%; inhibition at 10 µM [6]: < 10% |
| CCc1cccc2cc(C3C=C(c4ccc(OC)cc4)NC(=S)N3)c(Cl)nc12 (centres unmarked) [Compound 6a, 4-(2-Chloro-8-ethylquinolin-3-yl)-6-(4-methoxyphenyl)-3,4-dihydropyrimidine-2(1H)-thione] | < 10 | < 10 | 14.9 | 16.2 | < 10 | < 10 | < 10 | < 10 | < 10 | < 10 | < 10 | < 10 | < 10 | < 10 | < 10 | < 10 | < 10 | < 10 | < 10 | < 10 | inhibition at 10 µM (SF-295 (CNS cancer)): < 10%; inhibition at 10 µM (SW-620 (colon cancer)): < 10%; inhibition at 10 µM (786-0 (renal cancer)): < 10%; inhibition at 10 µM [4]: < 10%; inhibition at 10 µM (RXF 393 (renal cancer)): < 10%; inhibition at 10 µM (UACC-62 (melanoma)): 10.4%; inhibition at 10 µM [5]: < 10%; inhibition at 10 µM (SK-MEL-2 (melanoma)): < 10%; inhibition at 10 µM [6]: < 10% |
